Assay results reported in BindingDB's records for doi:10.1074/jbc.M110.109017 (The University of Kansas, 2010).
pKd: −log10 of the molar value.

Molecular target: Cytochrome P450 2E1 (Homo sapiens, UniProt P05181)
Experiment: Binding Assay
Description: Binding assay using CYP2E1.

Sequence of Cytochrome P450 2E1 (P05181 whole entry): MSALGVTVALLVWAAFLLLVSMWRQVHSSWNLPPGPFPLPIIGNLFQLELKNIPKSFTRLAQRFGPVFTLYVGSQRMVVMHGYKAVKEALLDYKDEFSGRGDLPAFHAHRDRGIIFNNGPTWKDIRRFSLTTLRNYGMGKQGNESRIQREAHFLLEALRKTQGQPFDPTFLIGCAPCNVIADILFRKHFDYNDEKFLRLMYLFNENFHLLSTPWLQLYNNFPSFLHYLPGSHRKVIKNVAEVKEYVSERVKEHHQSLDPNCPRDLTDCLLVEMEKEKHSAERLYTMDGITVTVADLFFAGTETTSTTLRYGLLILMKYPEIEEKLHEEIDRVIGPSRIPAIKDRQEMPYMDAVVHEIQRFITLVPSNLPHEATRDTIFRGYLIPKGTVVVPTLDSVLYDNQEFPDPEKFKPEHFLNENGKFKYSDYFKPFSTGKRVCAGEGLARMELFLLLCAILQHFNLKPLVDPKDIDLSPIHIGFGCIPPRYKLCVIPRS

pKd	SMILES
4.68	O=C(O)CCCCCCCn1ccnc1
5.05	O=C(O)CCCCCCCCCn1ccnc1 [Omega-imidazolyl decanoic acid]
5.74	O=C(O)CCCCCCCCCCCn1ccnc1 [Omega-imidazolyl dodecanoic acid]
